Consider 3 compounds from patent publication US7235563B2, “Spirocyclic compounds useful as modulators of nuclear hormone receptor function” (Bristol-Myers Squibb Company, priority 2004, dated 2007).

Like-named read-outs stand apart in the source and are kept apart here.

Test [1] deals with T1, AR (Rattus norvegicus, UniProt P15207).
T1 sequence (P15207 1-902): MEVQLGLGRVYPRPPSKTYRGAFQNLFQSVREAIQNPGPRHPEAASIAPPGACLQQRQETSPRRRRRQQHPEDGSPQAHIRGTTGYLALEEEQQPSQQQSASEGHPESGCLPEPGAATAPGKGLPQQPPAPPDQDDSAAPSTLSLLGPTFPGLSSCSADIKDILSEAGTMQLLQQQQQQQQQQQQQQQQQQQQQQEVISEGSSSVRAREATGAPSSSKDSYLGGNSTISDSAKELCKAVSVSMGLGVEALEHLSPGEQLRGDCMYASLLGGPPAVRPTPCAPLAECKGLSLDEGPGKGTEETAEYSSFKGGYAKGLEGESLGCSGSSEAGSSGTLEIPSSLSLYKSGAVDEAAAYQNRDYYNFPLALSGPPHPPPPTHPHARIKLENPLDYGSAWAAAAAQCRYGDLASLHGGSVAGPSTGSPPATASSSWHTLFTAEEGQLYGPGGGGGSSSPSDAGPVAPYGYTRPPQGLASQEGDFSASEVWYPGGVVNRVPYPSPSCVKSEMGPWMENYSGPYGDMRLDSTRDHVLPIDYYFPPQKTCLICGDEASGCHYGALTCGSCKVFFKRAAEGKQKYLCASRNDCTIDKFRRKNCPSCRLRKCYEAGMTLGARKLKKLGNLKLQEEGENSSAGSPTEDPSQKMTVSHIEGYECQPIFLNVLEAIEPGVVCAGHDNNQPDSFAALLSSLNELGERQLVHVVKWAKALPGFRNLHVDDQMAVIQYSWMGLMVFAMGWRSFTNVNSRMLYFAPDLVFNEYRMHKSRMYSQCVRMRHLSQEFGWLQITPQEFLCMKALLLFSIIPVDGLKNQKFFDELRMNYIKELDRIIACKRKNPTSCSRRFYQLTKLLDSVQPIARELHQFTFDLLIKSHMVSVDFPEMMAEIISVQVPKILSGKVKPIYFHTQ
The text has this: The basis of this assay lies in the well-defined action of androgenic agents on the maintenance and growth of muscle tissues and sexual accessory organs in animals and man. […] J. Anat. […] I. Quantitative data” Boll.-Soc. Ital. Biol. Sper. […] II. Electron-microscopic observations” Boll.-Soc. Ital. Biol. Sper. […] Castration results in rapid involution and atrophy of the prostate and seminal vesicles. This effect can be reversed by exogenous addition of androgens. Since both the levator ani muscle and the male sex organs are the tissues most responsive to the effects of androgenic agents, this model is used to determine the androgen dependent reversal of atrophy in the levator ani muscle and the sex accessory organs in immature castrated rats. […] Control vehicle • 2.
The gain and loss of sexual organ weight reflect the changes of the cell number (DNA content) and cell mass (protein content), depending upon the serum androgen concentration. […] Therefore, measurement of organ wet weight is sufficient to indicate the bioactivity of androgens and androgen antagonist.

Test [2] deals with T1, AR. The source holds these as a separate data set.
Test [3] deals with glucocorticoid receptor (Homo sapiens, UniProt P04150). Particulars: concentration of ≦10 μM; 10 ng/ml PMA; A549 cells. Here is the method: Cells are plated the day before the assay at approximately 40000 cells/well. […] Activity is measured by analysis in a luminometer as compared to control experiments treated with buffer or dexamethasome.
Test [4] concerns wild type AR (MDA 453 cells). Particulars: read-out: Kd for [3H]-DHT, Scatchard analysis. Here is the method: For the saturation analysis, the difference between the total binding and the non-specific binding, is defined as specific binding.
[formula] After correcting for non-specific binding, IC50 values are determined. […]

glucocorticoid receptor, sequence (P04150 whole entry): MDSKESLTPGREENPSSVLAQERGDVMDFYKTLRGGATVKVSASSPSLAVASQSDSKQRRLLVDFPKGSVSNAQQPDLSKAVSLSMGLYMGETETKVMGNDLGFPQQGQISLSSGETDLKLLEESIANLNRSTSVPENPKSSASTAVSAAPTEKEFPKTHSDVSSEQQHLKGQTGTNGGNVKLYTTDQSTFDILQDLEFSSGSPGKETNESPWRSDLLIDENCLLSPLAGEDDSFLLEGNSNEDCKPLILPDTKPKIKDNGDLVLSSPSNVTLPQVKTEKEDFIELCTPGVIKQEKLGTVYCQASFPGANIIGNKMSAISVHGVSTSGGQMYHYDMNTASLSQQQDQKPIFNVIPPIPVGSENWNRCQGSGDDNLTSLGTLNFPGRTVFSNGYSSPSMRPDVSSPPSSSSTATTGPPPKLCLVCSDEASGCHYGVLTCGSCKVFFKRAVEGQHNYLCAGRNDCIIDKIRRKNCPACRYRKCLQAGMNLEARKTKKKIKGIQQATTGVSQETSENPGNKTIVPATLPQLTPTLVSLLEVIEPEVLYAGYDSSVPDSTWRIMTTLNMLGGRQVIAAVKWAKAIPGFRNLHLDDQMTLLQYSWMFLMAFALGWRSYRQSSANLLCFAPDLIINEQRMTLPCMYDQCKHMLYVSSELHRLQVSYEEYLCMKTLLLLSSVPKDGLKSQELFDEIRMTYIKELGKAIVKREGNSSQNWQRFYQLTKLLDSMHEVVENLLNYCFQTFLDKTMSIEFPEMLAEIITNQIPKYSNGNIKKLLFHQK

Take `CCC(=O)O[C@H]1CC[C@H]2[C@@H]3CCC4=CC(=O)CC[C@]4(C)[C@H]3CC[C@]12C` [TP, testosterone propionate]: the “potency relative to free T” value in test [1] (TP versus free T) and in test [2] (TP versus free T) was 10-30 fold throughout. The “EC50 (increase in organ weight)” value is on record as roughly 0.03 mg in test [1] (castrated rats, dosing for 3 days) and roughly 0.03 mg in test [2] (immature castrated rats, dosing for 3 days). In test [2] (immature castrated rat model), this compound returned an ED80 of 0.1 mg.

Take `C[C@@H]1C[C@H]2[C@@H]3CCC4=CC(=O)C=C[C@]4(C)[C@@]3(F)[C@@H](O)C[C@]2(C)[C@@]1(O)C(=O)CO` [dexamethasone]: the “suppression of activity (% inhibition of the reporter system vs buffer control with PMA)” value in test [3] stood at 65%.

Take “tritiated dihydrotestosterone [[^3H]-DHT]”: in test [4], the Kd was 0.7 nM.
